According to the supplement of paper PMC11061612:

Legend:
[1] = tested on: HPAF-II (Pancreatic Carcinoma); test: Bliss excess, mean over the matrix (fraction); higher = more synergy
How it was run: (§1)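 Cell lines in DMEM/F12 or RPMI with 10% FBS were plated in 1536-well plates, held 24 hours at 37°C, 5% CO2, then given two-drug dose matrices for 72 hours (DMSO typically 0.2%). Viability was read by CellTiter-Glo 2.0 luminescence and scaled as inhibition from 0 (vehicle wells) to 1 (blank wells). Combination Emax is the second-highest inhibition in the matrix; Bliss excess is observed combination effect minus expected EA + EB − EA·EB, EA and EB being single-agent effects.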

[2] = tested on: BxPC-3 (Pancreatic Carcinoma); test: combination Emax (second highest fraction inhibited in the dose matrix, 72 h); higher = more inhibition; extreme values may be limits of the assay
How it was run: as §1

[3] = tested on: C-33-A (Cervical Carcinoma); test: as above
How it was run: as §1

[4] = tested on: DBTRG-05MG (Glioblastoma); test: as above
How it was run: as §1

[5] = tested on: HPAF-II (Pancreatic Carcinoma); test: as above
How it was run: as §1

[6] = tested on: HT-1080 (Other Solid Carcinomas); test: as above
How it was run: as §1

[7] = tested on: NAMALWA (Burkitt's Lymphoma); test: as above
How it was run: as §1

NB1 (Neuroblastoma) = test: as above
How it was run: as §1

[8] = tested on: NCI-H1341 (Small Cell Lung Carcinoma); test: as above
How it was run: as §1

NCI-H2373 (Mesothelioma) = test: as above
How it was run: as §1

[9] = tested on: SAT (Head and Neck Carcinoma); test: as above
How it was run: as §1

[10] = tested on: SKG-IIIa (Cervical Carcinoma); test: as above
How it was run: as §1

[11] = tested on: SNU-423 (Hepatocellular Carcinoma); test: as above
How it was run: as §1

[12] = tested on: T84 (Colorectal Carcinoma); test: as above
How it was run: as §1

WM35 (Melanoma) = test: as above
How it was run: as §1

[13] = tested on: ZR-75-30 (Breast Carcinoma); test: as above
How it was run: as §1
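Throughout, for Bliss excess, mean over the matrix: after 72 h of two-drug dosing.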

Compound | Bliss excess [1] | combination Emax [2] | combination Emax [3] | combination Emax [4] | combination Emax [5] | combination Emax [6] | combination Emax [7] | combination Emax (NB1 (Neuroblastoma)) | combination Emax [8] | combination Emax (NCI-H2373 (Mesothelioma)) | combination Emax [9] | combination Emax [10] | combination Emax [11] | combination Emax [12] | combination Emax (WM35 (Melanoma)) | combination Emax [13]
Cn1cnc2c(F)c(Nc3ccc(Br)cc3Cl)c(C(=O)NOCCO)cc21 [Selumetinib] + CC(C)n1c(=O)n(C)c2cnc3cc(F)c(-c4ccc(OCCCN5CCCCC5)nc4)cc3c21 [AZD1390] (first compound max 10 µM, 7x7, partner max 0.3 µM) | 0.0088 | 0.4 | 0.264 | 0.315 | 0.64 | 0.261 | 0.136 | 0.127 | 0.163 | 0.298 | 0.47 | 0.2 | 0.275 | 0.397 | 0.65 | 0.0506
Cn1cnc2c(F)c(Nc3ccc(Br)cc3Cl)c(C(=O)NOCCO)cc21 [Selumetinib] + CCN(CCO)CCCOc1ccc2c(Nc3cc(CC(=O)Nc4cccc(F)c4)[nH]n3)ncnc2c1 [AZD2811] (first compound max 10 µM, 7x7, partner max 1 µM) | 0.0129 | 0.407 | 0.324 | 0.282 | 0.682 | 0.387 | 0.336 | 0.566 | 0.271 | 0.284 | 0.604 | 0.321 | 0.264 | 0.312 | 0.664 | 0.111
Cn1cnc2c(F)c(Nc3ccc(Br)cc3Cl)c(C(=O)NOCCO)cc21 [Selumetinib] + C[C@@H]1COCCN1C2=NC(=NC(=C2)C3(CC3)[S@](=N)(=O)C)C4=C5C=CNC5=NC=C4 [AZD6738] (first compound max 10 µM, 7x7, partner max 10 µM) | 0.0119 | 0.494 | 0.894 | 0.358 | 0.768 | 0.461 | 0.918 | 0.783 | 0.809 | 0.463 | 0.561 | 0.214 | 0.285 | 0.667 | 0.767 | 0.111
